Laboratory results: patent publication US8993542B2, “Methods of treating viral infections” (priority 2008, dated 2015)

What was measured:
HIV-1IIIB [1] = assay: Two-drug combination antiviral assay in CEM cells (CPE), MacSynergy II; type: cell-based; settings: for Antagonism Volume, Result 1 / Antagonism Volume, Result 2 / Antagonism Volume, Result 3 / Mean Antagonism Volume (n = 3) / Mean Synergy Volume (n = 3) / Synergy Volume, Result 1 / Synergy Volume, Result 2 / Synergy Volume, Result 3: in combination with CMX157, CEM-SS cells, 95% confidence; for Interpretation of Antiviral Results (MacSynergy): two-drug combination (with CMX157; control d4T/RBV), CEM-SS cells
HIV-1IIIB [2] = assay: TCID50 determination of drug-treated HIV-1IIIB; type: cell-based; design: TCID50, XTT Endpoint / TCID50, RT Endpoint / TCID50, P24 Endpoint: unit not given here
[3] = virus treated 15 minutes with 0.039 nM drug
[4] = virus treated 15 minutes with 0.125 nM drug
[5] = virus treated 15 minutes with 0.39 nM drug
[6] = virus treated 15 minutes with 1.25 nM drug
[7] = virus treated 15 minutes with 3.9 nM drug
[8] = virus treated 15 minutes with 12.5 nM drug
[9] = virus treated 15 minutes with 39.1 nM drug
[10] = virus treated 15 minutes with 125 nM drug

`O=C1Nc2ccc(Cl)cc2C(C#CC2CC2)(C(F)(F)F)O1` (stereo not shown) [Efavirenz (EFV), 6-chloro-4-cyclopropylethynyl-4-trifluoromethyl-1,4-dihydro-2H3,1-benzoxazin-2-one] was tested, and the “Antagonism Volume, Result 1” value (HIV-1IIIB [1]) was 0 nM^2 %, μM^2 % or nMμM %, the “Antagonism Volume, Result 2” value (HIV-1IIIB [1]) was 0 nM^2 %, μM^2 % or nMμM % and the “Antagonism Volume, Result 3” value (HIV-1IIIB [1]) was 0 nM^2 %, μM^2 % or nMμM %. The “Mean Antagonism Volume (n = 3)” value (HIV-1IIIB [1]) was 0 nM^2 %, μM^2 % or nMμM %, the “Mean Synergy Volume (n = 3)” value (HIV-1IIIB [1]) was 69.8 nM^2 %, μM^2 % or nMμM % and the “Synergy Volume, Result 1” value (HIV-1IIIB [1]) was 85.7 nM^2 %, μM^2 % or nMμM %. For the same compound, the “Synergy Volume, Result 2” value (HIV-1IIIB [1]) was 80.6 nM^2 %, μM^2 % or nMμM %, the “Synergy Volume, Result 3” value (HIV-1IIIB [1]) was 43.2 nM^2 %, μM^2 % or nMμM % and the “Interpretation of Antiviral Results (MacSynergy)” value (“Interpretation” below) (HIV-1IIIB [1]) was “slightly synergistic”.

For `Cc1cc(C#N)cc(C)c1Oc1nc(Nc2ccc(C#N)cc2)nc(N)c1Br` [Etravirine (ETV), etravirine], the “Antagonism Volume, Result 1” value (HIV-1IIIB [1]) was −0.75 nM^2 %, μM^2 % or nMμM %, the “Antagonism Volume, Result 2” value (HIV-1IIIB [1]) was 0 nM^2 %, μM^2 % or nMμM % and the “Antagonism Volume, Result 3” value (HIV-1IIIB [1]) was −0.87 nM^2 %, μM^2 % or nMμM %. The “Mean Antagonism Volume (n = 3)” value (HIV-1IIIB [1]) was −0.29 nM^2 %, μM^2 % or nMμM %, the “Mean Synergy Volume (n = 3)” value (HIV-1IIIB [1]) was 69.0 nM^2 %, μM^2 % or nMμM % and the “Synergy Volume, Result 1” value (HIV-1IIIB [1]) was 34.9 nM^2 %, μM^2 % or nMμM %. The “Synergy Volume, Result 2” value (HIV-1IIIB [1]) was 106 nM^2 %, μM^2 % or nMμM %, the “Synergy Volume, Result 3” value (HIV-1IIIB [1]) was 67.4 nM^2 %, μM^2 % or nMμM % and the “Interpretation” value (HIV-1IIIB [1]) was “slightly synergistic”.

With `CCCCCCCCCCCCCCCCOCCCOP(=O)(O)OCCOCn1cnc2c(=O)[nH]c(N)nc21` [HDP-ACV] the “effect on infectious virus” value (HIV-1IIIB [2]; 15 minutes, 0.039 to 125 nM) was “no effect”, the “Fold Decrease From VC, P24 Endpoint” value (HIV-1IIIB [2]; [3]) was “(0) Fold” and the “Fold Decrease From VC, RT Endpoint” value (HIV-1IIIB [2]; [3]) was “(1.2) Fold”. For the same compound, the “Fold Decrease From VC, XTT Endpoint” value (HIV-1IIIB [2]; [3]) was “(0) Fold”, the “TCID50, P24 Endpoint” value (HIV-1IIIB [2]; [3]) was 30411 and the “TCID50, RT Endpoint” value (HIV-1IIIB [2]; [3]) was 132749. For the same compound, the “TCID50, XTT Endpoint” value (HIV-1IIIB [2]; [3]) was 18115, the “Fold Decrease From VC, P24 Endpoint” value (HIV-1IIIB [2]; [4]) was “(0) Fold” and the “Fold Decrease From VC, RT Endpoint” value (HIV-1IIIB [2]; [4]) was “(1.6) Fold”. The “Fold Decrease From VC, XTT Endpoint” value (HIV-1IIIB [2]; [4]) was “(1.1) Fold”, the “TCID50, P24 Endpoint” value (HIV-1IIIB [2]; [4]) was 36277 and the “TCID50, RT Endpoint” value (HIV-1IIIB [2]; [4]) was 102336. For the same compound, the “TCID50, XTT Endpoint” value (HIV-1IIIB [2]; [4]) was 16145, the “Fold Decrease From VC, P24 Endpoint” value (HIV-1IIIB [2]; [5]) was “(0) Fold” and the “Fold Decrease From VC, RT Endpoint” value (HIV-1IIIB [2]; [5]) was “(1.1) Fold”. For the same compound, the “Fold Decrease From VC, XTT Endpoint” value (HIV-1IIIB [2]; [5]) was “(0) Fold”, the “TCID50, P24 Endpoint” value (HIV-1IIIB [2]; [5]) was 30411 and the “TCID50, RT Endpoint” value (HIV-1IIIB [2]; [5]) was 144887. The “TCID50, XTT Endpoint” value (HIV-1IIIB [2]; [5]) was 20325, the “Fold Decrease From VC, P24 Endpoint” value (HIV-1IIIB [2]; [6]) was “(1.4) Fold” and the “Fold Decrease From VC, RT Endpoint” value (HIV-1IIIB [2]; [6]) was “(1.6) Fold”. For the same compound, the “Fold Decrease From VC, XTT Endpoint” value (HIV-1IIIB [2]; [6]) was “(1.1) Fold”, the “TCID50, P24 Endpoint” value (HIV-1IIIB [2]; [6]) was 21529 and the “TCID50, RT Endpoint” value (HIV-1IIIB [2]; [6]) was 102336. For the same compound, the “TCID50, XTT Endpoint” value (HIV-1IIIB [2]; [6]) was 16145, the “Fold Decrease From VC, P24 Endpoint” value (HIV-1IIIB [2]; [7]) was “(0) Fold” and the “Fold Decrease From VC, RT Endpoint” value (HIV-1IIIB [2]; [7]) was “(1.6) Fold”. For the same compound, the “Fold Decrease From VC, XTT Endpoint” value (HIV-1IIIB [2]; [7]) was “(0) Fold”, the “TCID50, P24 Endpoint” value (HIV-1IIIB [2]; [7]) was 30411 and the “TCID50, RT Endpoint” value (HIV-1IIIB [2]; [7]) was 102336. The “TCID50, XTT Endpoint” value (HIV-1IIIB [2]; [7]) was 20325, the “Fold Decrease From VC, P24 Endpoint” value (HIV-1IIIB [2]; [8]) was “(0) Fold” and the “Fold Decrease From VC, RT Endpoint” value (HIV-1IIIB [2]; [8]) was “(1.1) Fold”. The “Fold Decrease From VC, XTT Endpoint” value (HIV-1IIIB [2]; [8]) was “(0) Fold”, the “TCID50, P24 Endpoint” value (HIV-1IIIB [2]; [8]) was 36227 and the “TCID50, RT Endpoint” value (HIV-1IIIB [2]; [8]) was 144887. The “TCID50, XTT Endpoint” value (HIV-1IIIB [2]; [8]) was 18115, the “Fold Decrease From VC, P24 Endpoint” value (HIV-1IIIB [2]; [9]) was “(0) Fold” and the “Fold Decrease From VC, RT Endpoint” value (HIV-1IIIB [2]; [9]) was “(0) Fold”. The “Fold Decrease From VC, XTT Endpoint” value (HIV-1IIIB [2]; [9]) was “(1.1) Fold”, the “TCID50, P24 Endpoint” value (HIV-1IIIB [2]; [9]) was 30411 and the “TCID50, RT Endpoint” value (HIV-1IIIB [2]; [9]) was 204659. For the same compound, the “TCID50, XTT Endpoint” value (HIV-1IIIB [2]; [9]) was 16145, the “Fold Decrease From VC, P24 Endpoint” value (HIV-1IIIB [2]; [10]) was “(1.4) Fold” and the “Fold Decrease From VC, RT Endpoint” value (HIV-1IIIB [2]; [10]) was “(0) Fold”. For the same compound, the “Fold Decrease From VC, XTT Endpoint” value (HIV-1IIIB [2]; [10]) was “(0) Fold”, the “TCID50, P24 Endpoint” value (HIV-1IIIB [2]; [10]) was 21529 and the “TCID50, RT Endpoint” value (HIV-1IIIB [2]; [10]) was 162566. The “TCID50, XTT Endpoint” value (HIV-1IIIB [2]; [10]) was 18115.

For `CC(C)(C)NC(=O)[C@@H]1CN(Cc2cccnc2)CCN1C[C@@H](O)C[C@@H](Cc1ccccc1)C(=O)N[C@H]1c2ccccc2C[C@H]1O` [Indinavir (IDV), indinavir], the “Antagonism Volume, Result 1” value (HIV-1IIIB [1]) was −0.56 nM^2 %, μM^2 % or nMμM %, the “Antagonism Volume, Result 2” value (HIV-1IIIB [1]) was 0 nM^2 %, μM^2 % or nMμM % and the “Antagonism Volume, Result 3” value (HIV-1IIIB [1]) was 0 nM^2 %, μM^2 % or nMμM %. The “Mean Antagonism Volume (n = 3)” value (HIV-1IIIB [1]) was −0.19 nM^2 %, μM^2 % or nMμM %, the “Mean Synergy Volume (n = 3)” value (HIV-1IIIB [1]) was 53.0 nM^2 %, μM^2 % or nMμM % and the “Synergy Volume, Result 1” value (HIV-1IIIB [1]) was 78.7 nM^2 %, μM^2 % or nMμM %. The “Synergy Volume, Result 2” value (HIV-1IIIB [1]) was 62.7 nM^2 %, μM^2 % or nMμM %, the “Synergy Volume, Result 3” value (HIV-1IIIB [1]) was 17.6 nM^2 %, μM^2 % or nMμM % and the “Interpretation” value (HIV-1IIIB [1]) was “slightly synergistic”.

`Cc1cccc(C)c1OCC(=O)N[C@@H](Cc1ccccc1)[C@@H](O)C[C@H](Cc1ccccc1)NC(=O)[C@H](C(C)C)N1CCCNC1=O` [Lopinavir (LPV), lopinavir] was tested, and the “Antagonism Volume, Result 1” value (HIV-1IIIB [1]) was −0.31 nM^2 %, μM^2 % or nMμM %, the “Antagonism Volume, Result 2” value (HIV-1IIIB [1]) was 0 nM^2 %, μM^2 % or nMμM % and the “Antagonism Volume, Result 3” value (HIV-1IIIB [1]) was −0.12 nM^2 %, μM^2 % or nMμM %. For the same compound, the “Mean Antagonism Volume (n = 3)” value (HIV-1IIIB [1]) was −0.14 nM^2 %, μM^2 % or nMμM %, the “Mean Synergy Volume (n = 3)” value (HIV-1IIIB [1]) was 55.6 nM^2 %, μM^2 % or nMμM % and the “Synergy Volume, Result 1” value (HIV-1IIIB [1]) was 78.8 nM^2 %, μM^2 % or nMμM %. For the same compound, the “Synergy Volume, Result 2” value (HIV-1IIIB [1]) was 28.3 nM^2 %, μM^2 % or nMμM %, the “Synergy Volume, Result 3” value (HIV-1IIIB [1]) was 59.8 nM^2 %, μM^2 % or nMμM % and the “Interpretation” value (HIV-1IIIB [1]) was “slightly synergistic”.
